Assay [1] addresses carbonic anhydrase (Zn-CA) (Bos taurus, UniProt P00921). The assay is described as follows: fluorescence titration. It is filed as binding.
The target in assay [2] is T1, yeast alcohol dehydrogenase (Saccharomyces cerevisiae, UniProt P00330).
T1 sequence (P00330 2-348): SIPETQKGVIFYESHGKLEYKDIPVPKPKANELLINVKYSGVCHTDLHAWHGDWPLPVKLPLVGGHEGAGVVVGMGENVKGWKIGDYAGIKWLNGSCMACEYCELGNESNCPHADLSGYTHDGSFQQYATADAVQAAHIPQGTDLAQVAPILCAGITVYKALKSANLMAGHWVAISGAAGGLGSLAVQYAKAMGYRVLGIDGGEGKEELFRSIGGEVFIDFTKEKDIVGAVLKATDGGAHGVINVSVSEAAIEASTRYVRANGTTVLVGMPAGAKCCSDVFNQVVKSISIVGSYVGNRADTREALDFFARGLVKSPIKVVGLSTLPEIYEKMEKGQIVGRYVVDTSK
The assay is described as follows: fluorescence titration. It is filed as binding.

Structures are written as SMILES.

A word on the Kd: it is the concentration at which binding is half-saturated. Low values mean higher affinity, high ones lower affinity.

Sequence of carbonic anhydrase (Zn-CA) (P00921 2-260): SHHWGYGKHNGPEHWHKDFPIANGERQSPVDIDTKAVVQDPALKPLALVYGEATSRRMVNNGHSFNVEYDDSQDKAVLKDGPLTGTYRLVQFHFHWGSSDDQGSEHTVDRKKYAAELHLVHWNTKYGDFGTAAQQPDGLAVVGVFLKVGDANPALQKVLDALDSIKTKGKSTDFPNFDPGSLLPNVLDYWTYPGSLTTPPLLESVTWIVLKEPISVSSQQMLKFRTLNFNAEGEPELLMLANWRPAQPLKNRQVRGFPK

As for `COc1cc(NS(=O)(=O)c2ccc(C)cc2)c2ncccc2c1` [TSQ, 6-methoxy-8-p-toluenesulfonamido-quinoline], the results for the Kd in assay [1] and in assay [2] were 0.155 µM and 48.6 µM, respectively.
